Test results as given in patent US10857105B2, “Compounds and compositions for intracellular delivery of therapeutic agents” (ModernaTX, Inc., priority 2017, dated 2020).

Tests used:
mouse liver tissue = assay: Disappearance of parent lipid and primary metabolite from mouse liver after 0.25 mg/kg mRNA on days 1, 8 and 15; type: in vivo
Description: (§1) In vitro metabolite identification studies using compound 18 were also performed. […] The disappearance of parent compound 18 and the primary metabolite, compound 166, from mouse liver tissue was measured after dosing 0.25 mg/kg mRNA on days 1, 8, and 15.

[1] = Complement activation indicators in non-human primates; type: in vivo
Description: The tolerability and efficacy of nanoparticle compositions to non-human primates was also investigated using a sample formulation including Compound 18. The formulation was prepared according to the standard MC3 formulation described above and included an hEPO mRNA. Primates were administered a single dose of 0.05 (Group 1), 0.3 (Group 2), or 1.0 (Group 3) mpk via intravenous infusion for 60 minutes. Three primates were administered each dose. Expression of hEPO was measured prior to dosing and at 2, 6, 24, 48, and 96 hours post-treatment (Table 26). Table 28 includes levels of indicators of complement activation, while Table 29 includes cytokine induction data.

cynomolgus monkeys = assay: Human IgG (anti-influenza A antibody mRNA) expression in non-human primates; type: in vivo, cynomolgus monkey; settings: NHP, single dose
Description: NHP studies: Nonhuman primate studies were conducted using naïve cynomolgus monkeys (cynos), 2-4 years old, weighing 2-6 kg. No treatment randomization or blinding methods were used for any of the animal studies. Sample sizes were determined by the resource equation method. For injection, mRNA-LNPs in phosphate buffered saline (PBS) were administered by 60-minute intravenous infusion using a temporary indwelling catheter inserted in a peripheral vein.
Human IgG analysis for NHP samples: A 10.0-μL matrix aliquot is transferred to a low protein binding 96-well plate. A 25.0-μL aliquot of the working internal standard solution is added, and the sample aliquot is diluted with loading buffer. […] The final extract is analyzed via HPLC with MS/MS detection using positive ion electrospray. A linear, 1/concentration^2 weighted, least-squares regression algorithm is used to quantitate unknown samples.
NHP more closely approximates clinical responses for LNP-based systems than rodent (DeRosa, F., Guild, B., Karve, S., Smith, L., Love, K., Dorkin, J R., et. al. Therapeutic efficacy in a hemophilia B model using a biosynthetic mRNA liver depot system. Gene Ther. 2016, 23, 699-707, the contents of which are incorporated herein by reference in their entireties). […] A separate study evaluated the lipid tissue accumulation in NHP after a single dose.

Sprague Dawley rat = assay: One-month toxicological evaluation with weekly dosing in rat; type: in vivo
Description: Serum ALT and AST levels: Samples were analyzed using a Modular Analytics analyzer.
Next, tolerability and safety of the compound 18-based LNPs in vivo was tested. A full toxicological evaluation of compound 18-based LNPs in both Sprague Dawley rat and cynomolgus monkey was performed using a standard one-month study with weekly dosing at three dose levels in each species. Rats were dosed at 0.05, 0.5, and 2 mg/kg and a non-human primates was dosed at 0.1, 0.3, and 1 mg/kg. LNP-related toxicities associated with MC3-based LNP systems are generally associated with immunological (cytokine and complement activation) and hepatic injury. […] FIGS. 32 and 33 highlight the day 30 levels of alanine transferase (ALT, FIG. 32A) and aspartate aminotransferase (AST, FIG. 32B), two indicators of liver damage.

human hepatocytes = assay: Metabolite profiling of Compound 18 incubated with human hepatocytes; type: in vitro ADME; set-up: key: +: Detected; ND: Not detected; settings: Compound 18 (10 μM)
Description: as §1
The results of metabolic profiling and characterization for compound 18 incubated with human hepatocytes or human plasma are summarized in Tables 41 and 42, respectively.

[2] = pH, osmolality and zeta potential of nanoparticle compositions; type: physicochemical; settings: nanoparticle composition with hEPO mRNA (Table 30)

With `CCCCCCCCCOC(=O)CCCCCCCN(CCO)CCCCCCCC(=O)OC(CCCCCCCC)CCCCCCCC` [Compound 18, Heptadecan-9-yl 8-((2-hydroxyethyl)(8-(nonyloxy)-8-oxooctyl)amino)octanoate] the “clearance from mouse liver tissue” value (mouse liver tissue) was “rapid clearance”, the Bb fragment ([1]; Group 1 (0.05 mpk), 2 h) was 5341 ng/mL and the C5b9 ([1]; Group 1 (0.05 mpk), 2 h) was 1959 ng/mL. For the same compound, the Bb fragment ([1]; Group 1 (0.05 mpk), 6 h) was 3037 ng/mL, the C3a ([1]; Group 1 (0.05 mpk), 6 h) was 12385 ng/mL and the C5b9 ([1]; Group 1 (0.05 mpk), 6 h) was 786 ng/mL. It also gave a Bb fragment ([1]; Group 1 (0.05 mpk), 24 h) of 1496 ng/mL, a C3a ([1]; Group 1 (0.05 mpk), 24 h) of 11596 ng/mL and a Bb fragment ([1]; Group 1 (0.05 mpk), Day 5) of 1273 ng/mL. For the same compound, the C3a ([1]; Group 1 (0.05 mpk), Day 5) was 11945 ng/mL, the Bb fragment ([1]; Group 1 (0.05 mpk), Predose) was 1375 ng/mL and the C5b9 ([1]; Group 1 (0.05 mpk), Predose) was 169 ng/mL. It also gave a Bb fragment ([1]; Group 2 (0.3 mpk), 2 h) of 5356 ng/mL, a C5b9 ([1]; Group 2 (0.3 mpk), 2 h) of 393 ng/mL and a Bb fragment ([1]; Group 2 (0.3 mpk), 6 h) of 7157 ng/mL. It also gave a C3a ([1]; Group 2 (0.3 mpk), 6 h) of 32436 ng/mL, a C5b9 ([1]; Group 2 (0.3 mpk), 6 h) of 1333 ng/mL and a Bb fragment ([1]; Group 2 (0.3 mpk), 24 h) of 3680 ng/mL. For the same compound, the C3a ([1]; Group 2 (0.3 mpk), 24 h) was 19721 ng/mL, the Bb fragment ([1]; Group 2 (0.3 mpk), Day 5) was 2400 ng/mL and the C3a ([1]; Group 2 (0.3 mpk), Day 5) was 16207 ng/mL. For the same compound, the Bb fragment ([1]; Group 2 (0.3 mpk), Predose) was 1461 ng/mL, the C5b9 ([1]; Group 2 (0.3 mpk), Predose) was 157 ng/mL and the Bb fragment ([1]; Group 3 (1.0 mpk), 2 h) was 8849 ng/mL. It also gave a C5b9 ([1]; Group 3 (1.0 mpk), 2 h) of 801 ng/mL, a Bb fragment ([1]; Group 3 (1.0 mpk), 6 h) of 12820 ng/mL and a C3a ([1]; Group 3 (1.0 mpk), 6 h) of 51996 ng/mL. The C5b9 ([1]; Group 3 (1.0 mpk), 6 h) was 2928 ng/mL, the Bb fragment ([1]; Group 3 (1.0 mpk), 24 h) was 8601 ng/mL and the C3a ([1]; Group 3 (1.0 mpk), 24 h) was 35843 ng/mL. For the same compound, the Bb fragment ([1]; Group 3 (1.0 mpk), Day 5) was 2834 ng/mL, the C3a ([1]; Group 3 (1.0 mpk), Day 5) was 19101 ng/mL and the Bb fragment ([1]; Group 3 (1.0 mpk), Predose) was 1529 ng/mL. For the same compound, the C5b9 ([1]; Group 3 (1.0 mpk), Predose) was 238 ng/mL, the “increase in expression of anti-human IgG influenza A antibody compared to an MC3 LNP” value (cynomolgus monkeys) was 5 fold and the “ALT and AST levels, day 30, relative to PBS control” value (Sprague Dawley rat; any dose level) was “minimal elevation”. The toxicological findings (Sprague Dawley rat; weekly dosing one month, 0.05, 0.5 and 2 mg/kg) was “no adverse findings”, the “Detection at 0 min” value (human hepatocytes; human hepatocytes (1 million cells/mL), 0 min) was “+” and the “Detection at 60 min” value (human hepatocytes; human hepatocytes, 60 min) was “+”. For the same compound, the “Detection at 120 min” value (human hepatocytes; human hepatocytes, 120 min) was “+” and the “Detection at 240 min” value (human hepatocytes; human hepatocytes, 240 min) was “+”.

`CCCCCC=CCC=CCCCCCCCCC(CCCCCCCCC=CCC=CCCCCC)OC(=O)CCCN(C)C` (centres unmarked) [MC3, heptatriaconta-6,9,28,31-tetraen-19-yl 4-(dimethylamino)butanoate, reference compound] gave an Osmolality [2] of 318 mOsm/kg, a Zeta potential [2] of −3.64 mV and a pH [2] of 7.52.
